Measured values published in patent US20260028350A1, “TOXIN MOLECULE SUITABLE FOR ANTIBODY-DRUG CONJUGATE” (Minghui Pharmaceutical (Hangzhou) Limited, priority 2022, published 2026).

tested on: KPL-4 Cells; test: Cell proliferation inhibition test (CellTiter-Glo, 72h); type: cell-based; conditions: 72h incubation, Table 2 run
Description: KPL-4 Cells in the logarithmic phase of growth were collected and re-suspended with fresh RPMI1640 complete cell culture medium, and adjusted to 2×10^4 cells/mL after cell counting. Cells were seeded into 96-well cell culture plates at 100 µL/well, and placed in a CO2 incubator (37° C., 5% CO2) overnight. In the next day, one of the cell culture plates were taken out, balanced to room temperature, and CellTiter-Glo reagent (Promega, USA), which was pre-balanced to room temperature and evenly mixed, was added into the plate at 100 μl. The plate was kept in dark for 30 min, and then luminescence value was read with a microplate reader (denoted as Go value). The other cell culture plates were taken out and added with different concentrations of test compounds or DMSO (final concentration 0.5%) in corresponding wells. After incubated for 72h in a CO2 incubator, the cell culture plates were balanced to room temperature and tested for cell viabilities using CellTiter-Glo reagent as described above (denoted as G3 value).
DXd was used as a positive reference compound with the following structure:
The cell proliferation rates were calculated using the following formula: Cell proliferation rate (%)=(mean of G3compound−mean of G0)/(mean of G3DMSO−mean of G0)×100.

Point of comparison: CC[C@@]1(O)C(=O)OCc2c1cc1n(c2=S)Cc2c-1nc1cc(F)c(C)c3c1c2[C@@H](NC(=O)C1CCC(O)CC1)CC3 (stereo partly shown) [Example 32], GI50 8.47 nM. Against it:
- CC[C@@]1(O)C(=O)OCc2c1cc1n(c2=S)Cc2c-1nc1cc(F)c(C)c3c1c2[C@@H](NC(=O)C1CC(O)C1)CC3 (stereo partly shown) [Example 29] — within 1.5-fold, 5.96 nM
- CC[C@@]1(O)C(=O)OCc2c1cc1n(c2=S)Cc2c-1nc1cc(F)c(C)c3c1c2[C@@H](NC(=O)C1CC(O)C1)CC3 (stereo partly shown) [Example 30] — within 1.5-fold, 11.3 nM
- CC[C@@]1(O)C(=O)OCc2c1cc1n(c2=S)Cc2c-1nc1cc(F)c(C)c3c1c2[C@@H](NC(=O)C1CCC(O)CC1)CC3 (stereo partly shown) [Example 33] — within 1.5-fold, 6.34 nM

same assay, conditions: KPL4, 72 h, 72h incubation, Table 1 run (DXd: average of 2 measurements)

Point of comparison: CC[C@@]1(O)C(=O)OCc2c1cc1n(c2=O)Cc2c-1nc1cc(F)c(C)c3c1c2[C@@H](NC(=O)CO)CS3 [DXd, reference compound], GI50 45.4 nM. Against it:
- CC[C@@]1(O)C(=O)OCc2c1cc1n(c2=S)Cc2c-1nc1cc(F)c(C)cc1c2CN [Example 2] — 16-fold lower, 2.82 nM
- CC[C@@]1(O)C(=O)OCc2c1cc1n(c2=S)Cc2c-1nc1cc(F)c(C)cc1c2CNC(=O)CO [Example 3] — 7.2-fold lower, 6.27 nM
- CC[C@@]1(O)C(=O)OCc2c1cc1n(c2=S)Cc2c-1nc1cc(F)c(C)cc1c2CCCCO [Example 4] — 20-fold lower, 2.23 nM
- CC[C@@]1(O)C(=O)OCc2c1cc1n(c2=S)Cc2c-1nc1ccc(N)c3c1c2CCC3 [Example 5] — 25-fold lower, 1.84 nM

same assay, conditions: KPL4, 72 h, 72h incubation, Table 2 run

Point of comparison: CC[C@@]1(O)C(=O)OCc2c1cc1n(c2=S)Cc2c-1nc1cc3c(cc1c2CCNC(C)C)OCO3 [Example 10], GI50 2.24 nM. Against it:
- CC[C@@]1(O)C(=O)OCc2c1cc1n(c2=O)Cc2c-1nc1cc(F)c(C)c3c1c2[C@@H](NC(=O)CO)CS3 [DXd, reference compound] — 10-fold higher, 22.8 nM
- CC[C@@]1(O)C(=O)OCc2c1cc1n(c2=S)Cc2cc3c(CCCCO)c(C)c(F)cc3nc2-1 [Example 6] — 1.5-fold higher, 3.45 nM
- CC[C@@]1(O)C(=O)OCc2c1cc1n(c2=S)Cc2c-1nc1cc3c(cc1c2CNC(=O)CO)OCO3 [Example 8] — 5.4-fold higher, 12 nM
- CC[C@@]1(O)C(=O)OCc2c1cc1n(c2=S)Cc2c-1nc1cc3c(cc1c2CNC(=O)CN)OCO3 [Example 9] — 5.4-fold higher, 12.2 nM
- CC[C@@]1(O)C(=O)OCc2c1cc1n(c2=S)Cc2c-1nc1ccccc1c2CCNC(C)C [Example 11] — 2.9-fold higher, 6.48 nM
- CC[C@@]1(O)C(=O)OCc2c1cc1n(c2=S)Cc2c-1nc1cc3c(cc1c2C12CC(N)(C1)C2)OCO3 [Example 12] — within 1.5-fold, 2.98 nM
- CC[C@@]1(O)C(=O)OCc2c1cc1n(c2=S)Cc2cc3cc(N)c(F)cc3nc2-1 [Example 13] — 3.6-fold lower, 0.63 nM
- CC[C@@]1(O)C(=O)OCc2c1cc1n(c2=S)Cc2c-1nc1cc3c(cc1c2CNC(=O)C(O)C1CC1)OCO3 (stereo partly shown) [Example 14] — 1.6-fold higher, 3.49 nM
- CC[C@@]1(O)C(=O)OCc2c1cc1n(c2=S)Cc2c-1nc1cc3c(cc1c2CNC(=O)C(C)O)OCO3 (stereo partly shown) [Example 15] — 1.8-fold higher, 4.13 nM
- CC[C@@]1(O)C(=O)OCc2c1cc1n(c2=S)Cc2c-1nc1cc3c(cc1c2CNC(=O)C1CC(O)C1)OCO3 (stereo partly shown) [Example 16] — 6.5-fold higher, 14.5 nM
- CC[C@@]1(O)C(=O)OCc2c1cc1n(c2=S)Cc2c-1nc1cc3c(cc1c2CNC(=O)C[C@@H](C)O)OCO3 [Example 18] — 1.9-fold higher, 4.35 nM
- CC[C@@]1(O)C(=O)OCc2c1cc1n(c2=S)Cc2c-1nc1cc3c(cc1c2CNC(=O)C[C@H](C)O)OCO3 [Example 19] — 1.9-fold higher, 4.27 nM
- CC[C@@]1(O)C(=O)OCc2c1cc1n(c2=S)Cc2c-1nc1cc(F)c(C)cc1c2CNC(=O)C1CCC(O)CC1 (stereo partly shown) [Example 21] — 7.5-fold higher, 16.8 nM
- CC[C@@]1(O)C(=O)OCc2c1cc1n(c2=S)Cc2c-1nc1cc(F)c(C)cc1c2CNC(=O)C(C)O (stereo partly shown) [Example 22] — within 1.5-fold, 2.81 nM
- CC[C@@]1(O)C(=O)OCc2c1cc1n(c2=S)Cc2c-1nc1cc(F)c(C)cc1c2CNC(=O)C(O)C1CC1 (stereo partly shown) [Example 23] — within 1.5-fold, 1.73 nM
- CC[C@@]1(O)C(=O)OCc2c1cc1n(c2=S)Cc2c-1nc1cc(F)c(C)cc1c2CNC(=O)C[C@H](C)O [Example 24] — within 1.5-fold, 2.81 nM
- CC[C@@]1(O)C(=O)OCc2c1cc1n(c2=S)Cc2c-1nc1cc(F)c(C)cc1c2CNC(=O)C[C@@H](C)O [Example 25] — within 1.5-fold, 2.21 nM
- CC[C@@]1(O)C(=O)OCc2c1cc1n(c2=S)Cc2c-1nc1cc(F)c(C)c3c1c2[C@@H](NC(=O)C[C@@H](C)O)CC3 [Example 26] — within 1.5-fold, 3.24 nM
- CC[C@@]1(O)C(=O)OCc2c1cc1n(c2=S)Cc2c-1nc1cc(F)c(C)c3c1c2[C@@H](NC(=O)C[C@H](C)O)CC3 [Example 27] — within 1.5-fold, 2.93 nM
- CC[C@@]1(O)C(=O)OCc2c1cc1n(c2=S)Cc2c-1nc1cc(F)c(C)c3c1c2[C@@H](NC(=O)C1CC(O)C1)CC3 (stereo partly shown) [Example 28] — 4.8-fold higher, 10.8 nM
- CC[C@@]1(O)C(=O)OCc2c1cc1n(c2=S)Cc2c-1nc1cc(F)c(C)c3c1c2[C@@H](NC(=O)C1CCC(O)CC1)CC3 (stereo partly shown) [Example 31] — 3.8-fold higher, 8.62 nM
